Inhibition data for five compounds are collected here from publication PMC5540273, “Progress towards a public chemogenomic set for protein kinases and a call for contributions” (PLoS ONE, 2017).

Assay in all cases: KINOMEscan competition binding
In assay [1] the target is T1, ASK1 (Homo sapiens, UniProt Q99683).
T1 sequence (Q99683 1-1374): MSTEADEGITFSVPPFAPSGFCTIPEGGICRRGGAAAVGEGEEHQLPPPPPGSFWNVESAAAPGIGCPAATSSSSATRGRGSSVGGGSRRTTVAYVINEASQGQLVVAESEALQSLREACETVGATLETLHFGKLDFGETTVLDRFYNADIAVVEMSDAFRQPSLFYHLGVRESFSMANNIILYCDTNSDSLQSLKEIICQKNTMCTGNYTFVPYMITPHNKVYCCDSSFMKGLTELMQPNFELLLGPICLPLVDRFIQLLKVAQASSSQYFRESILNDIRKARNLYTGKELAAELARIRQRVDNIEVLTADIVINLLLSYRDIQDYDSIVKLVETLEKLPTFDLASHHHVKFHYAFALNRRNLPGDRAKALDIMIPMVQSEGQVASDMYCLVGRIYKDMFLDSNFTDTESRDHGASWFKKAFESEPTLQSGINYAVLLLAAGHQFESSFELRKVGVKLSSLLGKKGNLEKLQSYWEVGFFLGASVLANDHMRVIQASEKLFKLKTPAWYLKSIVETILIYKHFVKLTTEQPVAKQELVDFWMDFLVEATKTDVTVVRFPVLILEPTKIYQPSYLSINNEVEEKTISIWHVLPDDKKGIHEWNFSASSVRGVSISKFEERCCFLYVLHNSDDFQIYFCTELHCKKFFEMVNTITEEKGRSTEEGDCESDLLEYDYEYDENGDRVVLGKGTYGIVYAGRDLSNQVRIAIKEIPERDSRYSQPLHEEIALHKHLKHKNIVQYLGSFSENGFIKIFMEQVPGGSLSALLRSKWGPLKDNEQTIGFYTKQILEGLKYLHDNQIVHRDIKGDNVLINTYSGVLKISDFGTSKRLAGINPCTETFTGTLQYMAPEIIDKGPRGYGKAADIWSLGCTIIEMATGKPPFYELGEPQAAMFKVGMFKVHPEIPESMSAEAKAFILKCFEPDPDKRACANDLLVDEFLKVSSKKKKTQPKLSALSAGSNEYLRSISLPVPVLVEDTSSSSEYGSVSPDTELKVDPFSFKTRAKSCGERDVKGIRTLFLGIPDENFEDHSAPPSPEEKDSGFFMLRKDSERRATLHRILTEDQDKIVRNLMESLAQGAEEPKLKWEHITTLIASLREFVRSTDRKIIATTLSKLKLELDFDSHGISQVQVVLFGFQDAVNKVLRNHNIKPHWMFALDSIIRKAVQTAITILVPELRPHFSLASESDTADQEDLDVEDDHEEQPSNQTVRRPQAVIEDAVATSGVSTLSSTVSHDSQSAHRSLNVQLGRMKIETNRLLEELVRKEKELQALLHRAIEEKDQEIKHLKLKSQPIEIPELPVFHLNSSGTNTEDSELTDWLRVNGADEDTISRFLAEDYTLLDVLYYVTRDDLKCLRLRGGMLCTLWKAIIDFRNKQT
The settings on record: read-out: %Inh ASK1.

Assay [2] has as its target T2, AURKA (Homo sapiens, UniProt O14965).
T2 sequence (O14965 1-403): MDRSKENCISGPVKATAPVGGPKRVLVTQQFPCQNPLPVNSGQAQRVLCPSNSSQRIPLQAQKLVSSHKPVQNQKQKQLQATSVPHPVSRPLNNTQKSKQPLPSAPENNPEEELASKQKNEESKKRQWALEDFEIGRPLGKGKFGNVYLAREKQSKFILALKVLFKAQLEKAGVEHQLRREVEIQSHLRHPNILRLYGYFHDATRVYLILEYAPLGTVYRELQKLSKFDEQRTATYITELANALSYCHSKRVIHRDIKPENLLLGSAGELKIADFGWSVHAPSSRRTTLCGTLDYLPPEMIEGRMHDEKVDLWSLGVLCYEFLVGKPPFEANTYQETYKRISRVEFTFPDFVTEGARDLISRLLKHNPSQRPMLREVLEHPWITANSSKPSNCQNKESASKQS
The settings on record: read-out: %Inh AURKA.

The target in assay [3] is AURKB (Homo sapiens, UniProt Q96GD4). The note with it: read-out: %Inh AURKB.
Assay [4] concerns the target CAMK2G (Homo sapiens, UniProt Q13555). The note with it: read-out: %Inh CAMK2G.
Assay [5] has as its target CDK7 (Homo sapiens, UniProt P50613). The settings on record: read-out: %Inh CDK7.
The target of assay [6] is CHEK2 (Homo sapiens, UniProt O96017). The settings on record: read-out: %Inh CHEK2.
Sequence of CHEK2 (O96017 whole entry): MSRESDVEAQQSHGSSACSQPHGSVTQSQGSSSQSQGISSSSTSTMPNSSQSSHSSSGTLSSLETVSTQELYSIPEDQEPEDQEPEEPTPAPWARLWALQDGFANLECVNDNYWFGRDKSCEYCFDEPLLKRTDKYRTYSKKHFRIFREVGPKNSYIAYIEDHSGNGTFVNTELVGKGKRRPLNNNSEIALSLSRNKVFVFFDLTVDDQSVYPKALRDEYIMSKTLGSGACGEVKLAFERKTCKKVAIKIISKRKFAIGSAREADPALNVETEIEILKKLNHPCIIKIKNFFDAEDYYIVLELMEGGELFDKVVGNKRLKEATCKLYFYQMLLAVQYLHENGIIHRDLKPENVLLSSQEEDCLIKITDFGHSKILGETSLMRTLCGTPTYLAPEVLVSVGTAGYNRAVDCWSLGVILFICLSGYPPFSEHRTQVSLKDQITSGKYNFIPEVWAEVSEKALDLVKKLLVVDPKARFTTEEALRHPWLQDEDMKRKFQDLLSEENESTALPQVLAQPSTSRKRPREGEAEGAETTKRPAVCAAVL
In assay [7] the target is CLK3 (Homo sapiens, UniProt P49761). The note with it: read-out: %Inh CLK3.
Sequence of CLK3 (P49761 whole entry): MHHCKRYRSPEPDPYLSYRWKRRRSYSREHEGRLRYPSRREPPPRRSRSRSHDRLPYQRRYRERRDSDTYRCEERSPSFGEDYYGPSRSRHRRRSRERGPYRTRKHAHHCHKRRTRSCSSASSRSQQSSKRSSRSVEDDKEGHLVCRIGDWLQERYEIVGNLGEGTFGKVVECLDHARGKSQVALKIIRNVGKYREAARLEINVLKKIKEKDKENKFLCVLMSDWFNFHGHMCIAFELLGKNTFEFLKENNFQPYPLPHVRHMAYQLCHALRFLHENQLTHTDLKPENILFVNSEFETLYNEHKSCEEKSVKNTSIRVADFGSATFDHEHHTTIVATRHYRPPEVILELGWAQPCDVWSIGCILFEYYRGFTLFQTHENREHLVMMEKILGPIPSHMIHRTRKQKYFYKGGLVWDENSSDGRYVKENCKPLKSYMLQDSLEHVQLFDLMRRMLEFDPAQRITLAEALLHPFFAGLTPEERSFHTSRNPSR
Assay [8] addresses CSF1R (Homo sapiens, UniProt P07333). The note with it: read-out: %Inh CSF1R.
Assay [9] has as its target DAPK2 (Homo sapiens, UniProt Q9UIK4). The settings on record: read-out: %Inh DAPK2.
Assay [10] concerns the target DYRK1B (Homo sapiens, UniProt Q9Y463). The note with it: read-out: %Inh DYRK1B.
Assay [11] concerns the target FGFR4 (Homo sapiens, UniProt P22455). The settings on record: read-out: %Inh FGFR4.
Assay [12] addresses JAK1(JH2domain-pseudokinase) (Homo sapiens, UniProt P23458). The settings on record: read-out: %Inh JAK1(JH2domain-pseudokinase).
For assay [13], the target named is JNK3 (Homo sapiens, UniProt P53779). The settings on record: read-out: %Inh JNK3.
Sequence of JNK3 (P53779 whole entry): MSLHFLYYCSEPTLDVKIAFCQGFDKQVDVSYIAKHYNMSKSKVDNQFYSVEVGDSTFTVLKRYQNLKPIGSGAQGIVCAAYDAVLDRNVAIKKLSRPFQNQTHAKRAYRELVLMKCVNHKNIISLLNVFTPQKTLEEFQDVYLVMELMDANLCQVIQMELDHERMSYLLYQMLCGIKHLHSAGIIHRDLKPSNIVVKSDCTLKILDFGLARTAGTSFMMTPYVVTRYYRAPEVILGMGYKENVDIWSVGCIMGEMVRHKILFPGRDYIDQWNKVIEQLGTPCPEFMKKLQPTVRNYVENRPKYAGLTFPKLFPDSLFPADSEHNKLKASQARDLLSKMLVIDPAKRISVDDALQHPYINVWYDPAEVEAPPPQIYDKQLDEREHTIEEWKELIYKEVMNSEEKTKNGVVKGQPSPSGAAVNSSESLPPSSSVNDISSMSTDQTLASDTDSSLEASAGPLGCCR
In assay [14] the target is LIMK2 (Homo sapiens, UniProt P53671). The note with it: read-out: %Inh LIMK2.

Sequence of JAK1(JH2domain-pseudokinase) (P23458 578-855 limits assumed): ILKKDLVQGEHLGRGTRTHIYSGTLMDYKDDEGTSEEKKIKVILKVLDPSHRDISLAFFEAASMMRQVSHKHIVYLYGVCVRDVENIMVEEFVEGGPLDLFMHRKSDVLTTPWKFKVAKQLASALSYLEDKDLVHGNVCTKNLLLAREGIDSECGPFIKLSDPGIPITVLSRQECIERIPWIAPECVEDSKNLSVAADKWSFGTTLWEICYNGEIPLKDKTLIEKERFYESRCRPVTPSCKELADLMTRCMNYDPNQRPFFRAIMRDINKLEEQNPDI
Sequence of CSF1R (P07333 20-972): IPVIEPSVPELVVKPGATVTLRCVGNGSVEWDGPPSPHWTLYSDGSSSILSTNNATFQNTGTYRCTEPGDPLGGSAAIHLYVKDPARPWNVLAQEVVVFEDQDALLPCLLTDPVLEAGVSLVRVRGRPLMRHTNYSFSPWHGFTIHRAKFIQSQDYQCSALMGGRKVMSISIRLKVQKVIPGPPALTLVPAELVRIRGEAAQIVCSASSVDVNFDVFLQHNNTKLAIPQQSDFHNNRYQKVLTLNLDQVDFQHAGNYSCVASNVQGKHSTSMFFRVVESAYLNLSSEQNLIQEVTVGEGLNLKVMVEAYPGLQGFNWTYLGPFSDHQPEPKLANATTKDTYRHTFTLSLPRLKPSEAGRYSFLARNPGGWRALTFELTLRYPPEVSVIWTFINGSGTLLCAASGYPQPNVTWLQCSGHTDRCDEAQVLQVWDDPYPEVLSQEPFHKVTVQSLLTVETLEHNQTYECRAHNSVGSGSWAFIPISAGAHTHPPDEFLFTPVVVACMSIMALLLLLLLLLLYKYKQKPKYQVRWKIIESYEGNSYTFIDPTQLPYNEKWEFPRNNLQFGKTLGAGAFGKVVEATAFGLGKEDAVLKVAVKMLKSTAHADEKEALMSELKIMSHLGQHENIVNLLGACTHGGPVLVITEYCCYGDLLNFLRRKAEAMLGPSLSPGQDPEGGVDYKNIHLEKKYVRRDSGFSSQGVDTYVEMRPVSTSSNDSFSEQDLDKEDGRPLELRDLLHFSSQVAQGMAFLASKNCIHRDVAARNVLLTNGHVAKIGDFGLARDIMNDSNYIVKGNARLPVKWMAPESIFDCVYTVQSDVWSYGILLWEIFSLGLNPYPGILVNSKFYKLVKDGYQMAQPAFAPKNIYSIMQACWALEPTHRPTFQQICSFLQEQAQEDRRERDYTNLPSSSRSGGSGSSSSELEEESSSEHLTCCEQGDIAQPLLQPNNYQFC
Sequence of CDK7 (P50613 whole entry): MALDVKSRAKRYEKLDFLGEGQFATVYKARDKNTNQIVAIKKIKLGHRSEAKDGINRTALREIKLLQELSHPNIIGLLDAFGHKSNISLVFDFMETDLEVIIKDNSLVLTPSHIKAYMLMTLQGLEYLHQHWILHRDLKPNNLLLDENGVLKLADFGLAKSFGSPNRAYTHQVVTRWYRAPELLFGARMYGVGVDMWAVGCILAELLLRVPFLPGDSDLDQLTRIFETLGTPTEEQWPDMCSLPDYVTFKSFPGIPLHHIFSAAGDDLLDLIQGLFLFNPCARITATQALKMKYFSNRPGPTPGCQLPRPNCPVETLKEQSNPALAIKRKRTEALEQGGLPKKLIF
Sequence of DYRK1B (Q9Y463 whole entry): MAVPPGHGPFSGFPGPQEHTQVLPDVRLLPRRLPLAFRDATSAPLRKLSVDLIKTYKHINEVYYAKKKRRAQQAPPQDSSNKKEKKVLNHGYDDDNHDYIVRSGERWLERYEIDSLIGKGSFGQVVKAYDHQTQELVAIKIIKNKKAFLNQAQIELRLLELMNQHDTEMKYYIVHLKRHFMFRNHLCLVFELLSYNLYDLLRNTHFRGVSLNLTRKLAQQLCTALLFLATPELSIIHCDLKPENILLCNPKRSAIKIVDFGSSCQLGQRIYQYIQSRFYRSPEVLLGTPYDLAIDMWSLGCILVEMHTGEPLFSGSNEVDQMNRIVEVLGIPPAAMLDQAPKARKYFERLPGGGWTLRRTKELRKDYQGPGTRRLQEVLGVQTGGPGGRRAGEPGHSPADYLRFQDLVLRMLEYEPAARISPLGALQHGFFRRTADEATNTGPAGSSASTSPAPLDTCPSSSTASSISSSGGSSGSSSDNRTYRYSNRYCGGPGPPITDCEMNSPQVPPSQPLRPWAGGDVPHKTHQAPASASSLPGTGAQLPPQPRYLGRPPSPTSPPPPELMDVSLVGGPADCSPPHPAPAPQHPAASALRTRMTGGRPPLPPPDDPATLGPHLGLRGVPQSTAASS
Sequence of FGFR4 (P22455 22-802): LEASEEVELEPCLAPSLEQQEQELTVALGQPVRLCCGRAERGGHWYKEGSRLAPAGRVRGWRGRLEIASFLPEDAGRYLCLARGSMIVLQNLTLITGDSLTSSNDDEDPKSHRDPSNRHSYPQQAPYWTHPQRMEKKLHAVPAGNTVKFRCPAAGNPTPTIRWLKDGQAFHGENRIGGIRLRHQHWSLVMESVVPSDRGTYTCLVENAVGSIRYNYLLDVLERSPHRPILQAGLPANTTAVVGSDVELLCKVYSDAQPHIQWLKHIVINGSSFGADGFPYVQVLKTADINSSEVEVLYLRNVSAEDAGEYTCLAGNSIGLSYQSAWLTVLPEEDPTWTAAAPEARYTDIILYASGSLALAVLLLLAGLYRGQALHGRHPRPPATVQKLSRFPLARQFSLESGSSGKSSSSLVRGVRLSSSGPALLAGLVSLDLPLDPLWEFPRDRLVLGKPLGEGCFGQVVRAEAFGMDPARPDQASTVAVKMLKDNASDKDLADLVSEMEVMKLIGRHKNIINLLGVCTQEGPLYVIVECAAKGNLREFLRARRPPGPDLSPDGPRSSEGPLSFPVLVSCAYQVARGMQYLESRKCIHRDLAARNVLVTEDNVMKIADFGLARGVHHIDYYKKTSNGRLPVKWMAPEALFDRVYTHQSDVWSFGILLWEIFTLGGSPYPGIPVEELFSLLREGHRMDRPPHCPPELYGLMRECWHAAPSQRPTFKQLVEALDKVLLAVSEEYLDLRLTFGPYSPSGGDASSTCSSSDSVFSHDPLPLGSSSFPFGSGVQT
Sequence of DAPK2 (Q9UIK4 whole entry): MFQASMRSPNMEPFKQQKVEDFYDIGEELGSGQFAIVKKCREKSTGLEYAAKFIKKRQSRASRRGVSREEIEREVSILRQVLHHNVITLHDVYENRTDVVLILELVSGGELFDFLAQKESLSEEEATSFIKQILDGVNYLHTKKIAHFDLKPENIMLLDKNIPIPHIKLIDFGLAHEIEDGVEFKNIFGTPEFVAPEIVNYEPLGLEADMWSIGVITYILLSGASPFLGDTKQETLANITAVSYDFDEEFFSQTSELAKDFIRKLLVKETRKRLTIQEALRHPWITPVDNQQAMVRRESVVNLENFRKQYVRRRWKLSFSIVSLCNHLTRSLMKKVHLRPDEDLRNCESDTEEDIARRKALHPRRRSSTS

Take `Cn1cc(-c2cnc(N)c3c(-c4ccc5c(c4)CCN5C(=O)Cc4ccccc4)csc23)cn1` [UNC10225012A]: the inhibition at 1 µM in assay [1] was 21%; in assay [2] it was 24%; in assay [3], 97.8%; in [4], 13%; in assay [5] it was 19%; in [6], 0%. Besides, the inhibition at 1 µM in assay [7] worked out at 0%; in assay [8], 99.9%; in assay [9], 21%; in assay [10], 0%; in assay [11] it was 0%; in assay [12], 0%. In addition, the inhibition at 1 µM in assay [13] was 0%; in assay [14] it was 55%.

As for `CS(=O)(=O)Cc1ccc(Nc2nccc(-c3c(-c4cccc(NC(=O)C5CCCCC5)c4)nn4ncccc34)n2)cc1` [UNC10225159A], the inhibition at 1 µM in [1] turned out to be 0%; in assay [2] it was 9%; in [3], 15%; in assay [4], 0%; in assay [5], 6%; in assay [6], 0%. The inhibition at 1 µM in assay [7] was found to be 24%; in assay [8] it was 79%; in assay [9], 9%; in assay [10], 0%; in assay [11], 6%; in [12] it was 0%. For the same compound, the values for the inhibition at 1 µM in assay [13] and in assay [14] were 36% and 14%, respectively.

As to `Cc1ccc(NC(=O)Nc2cccc(C(F)(F)F)c2)cc1` [UNC10225187A], the inhibition at 1 µM is 20% in assay [1]; 0% in [2]; 0% in assay [3]; 4% in assay [4]; 12% in [5]; 0% in [6]. The inhibition at 1 µM turned out to be 0% in [7]; 0% in assay [8]; 3% in assay [9]; 0% in assay [10]; 0% in assay [11]; 12% in assay [12]. Moreover, the inhibition at 1 µM in assay [13] was 46%; in [14] it was 10%.

`COc1cccc(OC)c1C(=O)Nc1cccc(-c2nn3ccccc3c2-c2ccnc(Nc3cccc(F)c3)n2)c1` [UNC10225310A]: the inhibition at 1 µM in assay [1] turned out to be 22%; in assay [2], 32%; in [3] it was 0%; in [4], 0%; in [5] it was 22%; in assay [6] it was 0%. Besides, the inhibition at 1 µM worked out at 0% in assay [7]; 60% in [8]; 6% in assay [9]; 24% in assay [10]; 0% in assay [11]; 4% in [12]. Besides, the inhibition at 1 µM came to 0% in [13] and 15% in [14].

Consider `O=c1cc(N2CCOCC2)nc2n(Cc3cccc(Cl)c3Cl)c(C3CC3)nn12` [UNC10225469A], for which the inhibition at 1 µM in [1] is 0%; in [2], 0%; in assay [3], 4%; in assay [4], 0%; in [5], 5%; in [6], 0%. Moreover, the inhibition at 1 µM in [7] worked out at 14%; in assay [8], 0%; in assay [9], 12%; in assay [10], 0%; in assay [11], 0%; in [12], 3%. Moreover, the results for the inhibition at 1 µM in [13] and in [14] were 0% and 8%, respectively.
